In US20100204265A1 (priority 2009, published 2010) one finds EC50 data, which are given here for 33 compounds.

As usually defined, the EC50 is the concentration needed to bring the measured effect to its halfway point. A low value points to higher potency in that assay.

The assay deals with ET (Huh-lucubineo-ET) cell line harboring I389luc-ubi-neo/NS3-3′/ET HCV replicon. As to the kind of experiment: Replicon assay (HCV replicon, luciferase readout). Conditions: Hepatitis C virus. The class given is cell-based. Summed up: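 Compounds at 10-point 2-fold dilutions (overall 0.1 nM to […], 0.5% DMSO) were applied to ET cells carrying a luciferase-neo HCV replicon, seeded a day earlier. After 48-72 hours, luciferase-based % inhibition was fitted with a Hill equation for EC50, and parallel WST-1 readings gave TC50.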
For orientation: A replicon is a self-replicating genome or part of one, used to study replication in cells.

The compound `CC(C)C(NC(=O)c1cn2cc(-c3ccoc3)cc(C(F)(F)F)c2n1)C(N)=O` (stereo not drawn) [Compound 278, 6-Furan-3-yl-8-trifluoromethyl-imidazo[1,2-a]pyridine-2-carboxylic acid (1-carbamoyl-2-methyl-propyl)-amide] came in with an EC50 of more than 50 µM.

Consider `NC(=O)C(CO)NC(=O)c1cn2cc(-c3ccoc3)cc(C(F)(F)F)c2n1` (stereo not drawn) [Compound 279, 6-Furan-3-yl-8-trifluoromethyl-imidazo[1,2-a]pyridine-2-carboxylic acid (1-carbamoyl-2-hydroxy-ethyl)-amide], for which the EC50 was more than 50 µM.

Compound `NC(=O)C1CCCN1C(=O)c1cn2cc(-c3ccoc3)cc(C(F)(F)F)c2n1` (stereo not drawn) [Compound 280, 1-(6-Furan-3-yl-8-trifluoromethyl-imidazo[1,2-a]pyridine-2-carbonyl)-pyrrolidine-2-carboxylic acid amide] registered an EC50 of more than 50 µM.

The compound `CN(C)C(=O)C1CCCN1C(=O)c1cn2cc(-c3ccoc3)cc(C(F)(F)F)c2n1` (stereo not drawn) [Compound 281, 1-(6-Furan-3-yl-8-trifluoromethyl-imidazo[1,2-a]pyridine-2-carbonyl)-pyrrolidine-2-carboxylic acid dimethylamide] came in with a concentration giving a half-maximal response (EC50) of more than 50 µM.

With `CC(O)C(NC(=O)c1cn2cc(-c3ccoc3)cc(C(F)(F)F)c2n1)C(N)=O` (stereo not drawn) [Compound 282, 6-Furan-3-yl-8-trifluoromethyl-imidazo[1,2-a]pyridine-2-carboxylic acid (1-carbamoyl-2-hydroxy-propyl)-amide], the EC50 is more than 50 µM.

Regarding `O=C(NCCc1cn2cc(-c3ccoc3)cc(C(F)(F)F)c2n1)Nc1ccccc1` [Compound 283, 1-[2-(6-Furan-3-yl-8-trifluoromethyl-imidazo[1,2-a]pyridin-2-yl)-ethyl]-3-phenyl-urea], the EC50 was more than 50 µM.

Compound `CC(=O)N1CCCC1C(=O)NCc1cn2cc(-c3ccoc3)cc(C(F)(F)F)c2n1` (stereo not drawn) [Compound 284, 1-Acetyl-pyrrolidine-2-carboxylic acid (6-furan-3-yl-8-trifluoromethyl-imidazo[1,2-a]pyridin-2-ylmethyl)-amide] yielded an EC50 of more than 50 µM.

Compound `O=C(O)CCNC(=O)c1cn2cc(-c3ccoc3)cc(C(F)(F)F)c2n1` [Compound 285, 3-[(6-Furan-3-yl-8-trifluoromethyl-imidazo[1,2-a]pyridine-2-carbonyl)-amino]-propionic acid] displayed an EC50 of more than 50 µM.

`O=C(NC(Cc1ccccc1)C(=O)O)c1cn2cc(-c3ccoc3)cc(C(F)(F)F)c2n1` (stereo not drawn) [Compound 286, 2-[(6-Furan-3-yl-8-trifluoromethyl-imidazo[1,2-a]pyridine-2-carbonyl)-amino]-3-phenyl-propionic acid] had an EC50 of more than 50 µM.

As for `CSCCC(NC(C)=O)C(=O)NCc1cn2cc(-c3ccoc3)cc(C(F)(F)F)c2n1` (stereo not drawn) [Compound 287, 2-Acetylamino-N-(6-furan-3-yl-8-trifluoromethyl-imidazo[1,2-a]pyridin-2-ylmethyl)-4-methylsulfanyl-butyramide], the EC50 was more than 50 µM.

As for `CC(=O)N[C@H](C(=O)NCc1cn2cc(-c3ccoc3)cc(C(F)(F)F)c2n1)C(C)C` [Compound 288, 2-Acetylamino-N-(6-furan-3-yl-8-trifluoromethyl-imidazo[1,2-a]pyridin-2-ylmethyl)-3-methyl-butyramide], the EC50 is more than 50 µM.

Consider `CC(=O)NC(C(=O)NCc1cn2cc(-c3ccoc3)cc(C(F)(F)F)c2n1)C(C)O` (stereo not drawn) [Compound 289, 2-Acetylamino-N-(6-furan-3-yl-8-trifluoromethyl-imidazo[1,2-a]pyridin-2-ylmethyl)-3-hydroxy-butyramide], for which the EC50 is more than 50 µM.

Turning to `COC(=O)CNC(=O)Cc1cn2cc(-c3ccoc3)cc(C(F)(F)F)c2n1` [Compound 290, [2-(6-Furan-3-yl-8-trifluoromethyl-imidazo[1,2-a]pyridin-2-yl)-acetylamino]-acetic acid methyl ester], the EC50 is more than 50 µM.

For `COC(=O)C(CCSC)NC(=O)Cc1cn2cc(-c3ccoc3)cc(C(F)(F)F)c2n1` (stereo not drawn) [Compound 291, 2-[2-(6-Furan-3-yl-8-trifluoromethyl-imidazo[1,2-a]pyridin-2-yl)-acetylamino]-4-methylsulfanyl-butyric acid methyl ester], the EC50 was more than 50 µM.

In turn, `COC(=O)C(CO)NC(=O)Cc1cn2cc(-c3ccoc3)cc(C(F)(F)F)c2n1` (stereo not drawn) [Compound 292, 2-[2-(6-Furan-3-yl-8-trifluoromethyl-imidazo[1,2-a]pyridin-2-yl)-acetylamino]-3-hydroxy-propionic acid methyl ester] displayed an EC50 of more than 50 µM.

With `COC(=O)C(Cc1cnc[nH]1)NC(=O)Cc1cn2cc(-c3ccoc3)cc(C(F)(F)F)c2n1` (stereo not drawn) [Compound 293, 2-[2-(6-Furan-3-yl-8-trifluoromethyl-imidazo[1,2-a]pyridin-2-yl)-acetylamino]-3-(3H-imidazol-4-yl)-propionic acid methyl ester], the EC50 was more than 50 µM.

In the case of `COC(=O)CCNC(=O)Cc1cn2cc(-c3ccoc3)cc(C(F)(F)F)c2n1` [Compound 295, 3-[2-(6-Furan-3-yl-8-trifluoromethyl-imidazo[1,2-a]pyridin-2-yl)-acetylamino]-propionic acid methyl ester], the 50% effective concentration (EC50) was more than 50 µM.

`CC(NC(=O)Cc1cn2cc(-c3ccoc3)cc(C(F)(F)F)c2n1)C(N)=O` (stereo not drawn) [Compound 296, 2-[2-(6-Furan-3-yl-8-trifluoromethyl-imidazo[1,2-a]pyridin-2-yl)-acetylamino]-propionamide] registered an EC50 of more than 50 µM.

`CC(C)[C@H](NC(=O)Cc1cn2cc(-c3ccoc3)cc(C(F)(F)F)c2n1)C(N)=O` [Compound 297, 2-[2-(6-Furan-3-yl-8-trifluoromethyl-imidazol[1,2-a]pyridin-2-yl)-acetylamino]-3-methyl-butyramide] displayed an EC50 of more than 50 µM.

Consider `CC(O)[C@H](NC(=O)Cc1cn2cc(-c3ccoc3)cc(C(F)(F)F)c2n1)C(N)=O` (stereo partly drawn) [Compound 299, 2-[2-(6-Furan-3-yl-8-trifluoromethyl-imidazo[1,2-a]pyridin-2-yl)-acetylamino]-3-hydroxy-butyramide], for which the EC50 is more than 50 µM.

Regarding `NC(=O)CNC(=O)Cc1cn2cc(-c3ccoc3)cc(C(F)(F)F)c2n1` [Compound 300, N-Carbamoylmethyl-2-(6-furan-3-yl-8-trifluoromethyl-imidazo[1,2-a]pyridin-2-yl)-acetamide], the EC50 was more than 50 µM.

Take `CNC(=O)CNC(=O)Cc1cn2cc(-c3ccoc3)cc(C(F)(F)F)c2n1` [Compound 301, 2-(6-Furan-3-yl-8-trifluoromethyl-imidazo[1,2-a]pyridin-2-yl)-N-methylcarbamoylmethyl-acetamide]: the EC50 was more than 50 µM.

`CN(C)C(=O)CNC(=O)Cc1cn2cc(-c3ccoc3)cc(C(F)(F)F)c2n1` [Compound 302, N-Dimethylcarbamoylmethyl-2-(6-furan-3-yl-8-trifluoromethyl-imidazo[1,2-a]pyridin-2-yl)-acetamide] showed an EC50 of more than 50 µM.

With `NC(=O)[C@H](Cc1c[nH]c2ccccc12)NC(=O)Cc1cn2cc(-c3ccoc3)cc(C(F)(F)F)c2n1` [Compound 303, 2-[2-(6-Furan-3-yl-8-trifluoromethyl-imidazo[1,2-a]pyridin-2-yl)-acetylamino]-3-(1H-indol-3-yl)-propionamide], the EC50 is more than 50 µM.

In the case of `COC(=O)C(C)NC(=O)Cc1cn2cc(-c3ccoc3)cc(C(F)(F)F)c2n1` (stereo not drawn) [Compound 304, 2-[2-(6-Furan-3-yl-8-trifluoromethyl-imidazo[1,2-a]pyridin-2-yl)-acetylamino]-propionic acid methyl ester], the EC50 is more than 50 µM.

Compound `COC(=O)C(NC(=O)Cc1cn2cc(-c3ccoc3)cc(C(F)(F)F)c2n1)C(C)O` (stereo not drawn) [Compound 305, 2-[2-(6-Furan-3-yl-8-trifluoromethyl-imidazo[1,2-a]pyridin-2-yl)-acetylamino]-3-hydroxy-butyric acid methyl ester] showed an EC50 of more than 50 µM.

`COC(=O)C(CC(C)C)NC(=O)Cc1cn2cc(-c3ccoc3)cc(C(F)(F)F)c2n1` (stereo not drawn) [Compound 306, 2-[2-(6-Furan-3-yl-8-trifluoromethyl-imidazo[1,2-a]pyridin-2-yl)-acetylamino]-4-methyl-pentanoic acid methyl ester]: the EC50 was more than 50 µM.

Regarding `COC(=O)C1CCCN1C(=O)Cc1cn2cc(-c3ccoc3)cc(C(F)(F)F)c2n1` (stereo not drawn) [Compound 307, 1-[2-(6-Furan-3-yl-8-trifluoromethyl-imidazo[1,2-a]pyridin-2-yl)-acetyl]-pyrrolidine-2-carboxylic acid methyl ester], the EC50 is more than 50 µM.

`COC(=O)C(NC(=O)Cc1cn2cc(-c3ccoc3)cc(C(F)(F)F)c2n1)c1ccccc1` (stereo not drawn) [Compound 309, [2-(6-Furan-3-yl-8-trifluoromethyl-imidazo[1,2-a]pyridin-2-yl)-acetylamino]-phenyl-acetic acid methyl ester] came in with an EC50 of more than 50 µM.

On to `COC(=O)C(NC(=O)Cc1cn2cc(-c3ccoc3)cc(C(F)(F)F)c2n1)C(C)C` (stereo not drawn) [Compound 310, 2-[2-(6-Furan-3-yl-8-trifluoromethyl-imidazo[1,2-a]pyridin-2-yl)-acetylamino]-3-methyl-butyric acid methyl ester], for which the EC50 was more than 50 µM.

`COC(=O)C(Cc1c[nH]c2ccccc12)NC(=O)Cc1cn2cc(-c3ccoc3)cc(C(F)(F)F)c2n1` (stereo not drawn) [Compound 311, 2-[2-(6-Furan-3-yl-8-trifluoromethyl-imidazol[1,2-a]pyridin-2-yl)-acetylamino]-3-(1H-indol-3-yl)-propionic acid methyl ester]: the concentration giving a half-maximal response (EC50) was more than 50 µM.

In turn, `COC(=O)C(Cc1ccccc1)NC(=O)Cc1cn2cc(-c3ccoc3)cc(C(F)(F)F)c2n1` (stereo not drawn) [Compound 312, 2-[2-(6-Furan-3-yl-8-trifluoromethyl-imidazo[1,2-a]pyridin-2-yl)-acetylamino]-3-phenyl-propionic acid methyl ester] had an EC50 of more than 50 µM.

In the case of `NC(=O)[C@H]1CCCN1C(=O)Cc1cn2cc(-c3ccoc3)cc(C(F)(F)F)c2n1` [Compound 313, 1-[2-(6-Furan-3-yl-8-trifluoromethyl-imidazo[1,2-a]pyridin-2-yl)-acetyl]-pyrrolidine-2-carboxylic acid amide], the EC50 is more than 50 µM.
